Laboratory results reported in the supplement of paper PMC10307832.

Experiments:
Assay in all cases: relative viability (nuclei count vs DMSO), 5 days (fraction); higher = more cells survive
R406 + Trametinib = compound: COc1cc(Nc2ncc(F)c(Nc3ccc4c(n3)NC(=O)C(C)(C)O4)n2)cc(OC)c1OC [R406] + CC(=O)Nc1cccc(-n2c(=O)n(C3CC3)c(=O)c3c(Nc4ccc(I)cc4F)n(C)c(=O)c(C)c32)c1 [Trametinib] (partner 0.02 µM)
In short: (§1)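 One day after seeding in 1536-well plates, lung cancer cell lines were dosed by pin tool. Dosing was either single-drug or a fixed anchor-drug dose plus five library-drug doses (not always all listed) in √10 steps. After 5 days, nuclei were stained in one fix-and-stain step and counted on 4× images, and relative viability is the nuclei count of treated wells over that of vehicle wells, given as the median of duplicate plates.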

R406 + AZD7762 = compound: COc1cc(Nc2ncc(F)c(Nc3ccc4c(n3)NC(=O)C(C)(C)O4)n2)cc(OC)c1OC [R406] + NC(=O)Nc1cc(-c2cccc(F)c2)sc1C(=O)N[C@H]1CCCNC1 [AZD7762] (partner 0.2 µM)
In short: as §1

Daporinad + Phenformin = compound: O=C(/C=C/c1cccnc1)NCCCCC1CCN(C(=O)c2ccccc2)CC1 [Daporinad] + N=C(N)NC(=N)NCCc1ccccc1 [Phenformin] (partner 250 µM)
In short: as §1

R406 + Pictilisib = compound: COc1cc(Nc2ncc(F)c(Nc3ccc4c(n3)NC(=O)C(C)(C)O4)n2)cc(OC)c1OC [R406] + CS(=O)(=O)N1CCN(Cc2cc3nc(-c4cccc5[nH]ncc45)nc(N4CCOCC4)c3s2)CC1 [Pictilisib] (partner 1 µM)
In short: as §1

LC-2-ad
relative viability (R406 + Trametinib; first compound 0.08 µM): 0.912
relative viability (R406 + Trametinib; first compound 0.253 µM): 0.907
relative viability (R406 + Trametinib; first compound 0.8 µM): 0.971
relative viability (R406 + Trametinib; first compound 2.53 µM): 0.465
relative viability (R406 + Trametinib; first compound 8 µM): 0.334
relative viability (R406 + AZD7762; first compound 0.08 µM): 0.856
relative viability (R406 + AZD7762; first compound 0.253 µM): 0.898
relative viability (R406 + AZD7762; first compound 0.8 µM): 0.89
relative viability (R406 + AZD7762; first compound 2.53 µM): 0.827
relative viability (R406 + AZD7762; first compound 8 µM): 0.343
relative viability (Daporinad + Phenformin; first compound 0.0005 µM): 0.568
relative viability (Daporinad + Phenformin; first compound 0.001581 µM): 0.707
relative viability (Daporinad + Phenformin; first compound 0.005 µM): 0.605
relative viability (Daporinad + Phenformin; first compound 0.01581 µM): 0.677
relative viability (R406 + Pictilisib; first compound 0.08 µM): 0.554
relative viability (R406 + Pictilisib; first compound 0.253 µM): 0.309
relative viability (R406 + Pictilisib; first compound 0.8 µM): 0.596
relative viability (R406 + Pictilisib; first compound 2.53 µM): 0.12
relative viability (R406 + Pictilisib; first compound 8 µM): 0.0919

NCI-H1915
relative viability (R406 + Trametinib; first compound 0.08 µM): 0.324
relative viability (R406 + Trametinib; first compound 0.253 µM): 0.334
relative viability (R406 + Trametinib; first compound 0.8 µM): 0.313
relative viability (R406 + Trametinib; first compound 2.53 µM): 0.268
relative viability (R406 + Trametinib; first compound 8 µM): 0.197
relative viability (R406 + AZD7762; first compound 0.08 µM): 0.687
relative viability (R406 + AZD7762; first compound 0.253 µM): 0.751
relative viability (R406 + AZD7762; first compound 0.8 µM): 0.735
relative viability (R406 + AZD7762; first compound 2.53 µM): 0.614
relative viability (R406 + AZD7762; first compound 8 µM): 0.614
relative viability (Daporinad + Phenformin; first compound 0.0005 µM): 0.328
relative viability (Daporinad + Phenformin; first compound 0.001581 µM): 0.398
relative viability (Daporinad + Phenformin; first compound 0.005 µM): 0.362
relative viability (Daporinad + Phenformin; first compound 0.01581 µM): 0.365
relative viability (R406 + Pictilisib; first compound 0.08 µM): 0.942
relative viability (R406 + Pictilisib; first compound 0.253 µM): 1.03
relative viability (R406 + Pictilisib; first compound 0.8 µM): 0.972
relative viability (R406 + Pictilisib; first compound 2.53 µM): 0.364
relative viability (R406 + Pictilisib; first compound 8 µM): 0.74

LXF-289
relative viability (R406 + Trametinib; first compound 0.08 µM): 0.675
relative viability (R406 + Trametinib; first compound 0.253 µM): 0.694
relative viability (R406 + Trametinib; first compound 0.8 µM): 0.68
relative viability (R406 + Trametinib; first compound 2.53 µM): 0.67
relative viability (R406 + Trametinib; first compound 8 µM): 0.672
relative viability (R406 + AZD7762; first compound 0.08 µM): 1.03
relative viability (R406 + AZD7762; first compound 0.253 µM): 1.19
relative viability (R406 + AZD7762; first compound 0.8 µM): 1.11
relative viability (R406 + AZD7762; first compound 2.53 µM): 0.88
relative viability (R406 + AZD7762; first compound 8 µM): 0.762
relative viability (Daporinad + Phenformin; first compound 0.0005 µM): 0.467
relative viability (Daporinad + Phenformin; first compound 0.001581 µM): 0.555
relative viability (Daporinad + Phenformin; first compound 0.005 µM): 0.559
relative viability (Daporinad + Phenformin; first compound 0.01581 µM): 0.579
relative viability (R406 + Pictilisib; first compound 0.08 µM): 0.724
relative viability (R406 + Pictilisib; first compound 0.253 µM): 0.799
relative viability (R406 + Pictilisib; first compound 0.8 µM): 0.845
relative viability (R406 + Pictilisib; first compound 2.53 µM): 0.634
relative viability (R406 + Pictilisib; first compound 8 µM): 0.268

PC-3 [JPC-3]
relative viability (R406 + Trametinib; first compound 0.08 µM): 0.801
relative viability (R406 + Trametinib; first compound 0.253 µM): 0.738
relative viability (R406 + Trametinib; first compound 0.8 µM): 0.81
relative viability (R406 + Trametinib; first compound 2.53 µM): 0.669
relative viability (R406 + Trametinib; first compound 8 µM): 0.475
relative viability (R406 + AZD7762; first compound 0.08 µM): 0.817
relative viability (R406 + AZD7762; first compound 0.253 µM): 0.819
relative viability (R406 + AZD7762; first compound 0.8 µM): 0.923
relative viability (R406 + AZD7762; first compound 2.53 µM): 0.684
relative viability (R406 + AZD7762; first compound 8 µM): 0.381
relative viability (Daporinad + Phenformin; first compound 0.0005 µM): 0.494
relative viability (Daporinad + Phenformin; first compound 0.001581 µM): 0.481
relative viability (Daporinad + Phenformin; first compound 0.005 µM): 0.478
relative viability (Daporinad + Phenformin; first compound 0.01581 µM): 0.471
relative viability (R406 + Pictilisib; first compound 0.08 µM): 0.764
relative viability (R406 + Pictilisib; first compound 0.253 µM): 0.762
relative viability (R406 + Pictilisib; first compound 0.8 µM): 0.814
relative viability (R406 + Pictilisib; first compound 2.53 µM): 0.467
relative viability (R406 + Pictilisib; first compound 8 µM): 0.421
